Key:
COX-1 = molecular target: T1, COX-1 (Ovis aries, UniProt P05979); assay: COX-1 ELISA assay kit (PGHS-1 converting arachidonic acid to prostaglandins); settings: commercial anti-inflammatory drug (positive control); concentration not given
T1 sequence (P05979 25-600): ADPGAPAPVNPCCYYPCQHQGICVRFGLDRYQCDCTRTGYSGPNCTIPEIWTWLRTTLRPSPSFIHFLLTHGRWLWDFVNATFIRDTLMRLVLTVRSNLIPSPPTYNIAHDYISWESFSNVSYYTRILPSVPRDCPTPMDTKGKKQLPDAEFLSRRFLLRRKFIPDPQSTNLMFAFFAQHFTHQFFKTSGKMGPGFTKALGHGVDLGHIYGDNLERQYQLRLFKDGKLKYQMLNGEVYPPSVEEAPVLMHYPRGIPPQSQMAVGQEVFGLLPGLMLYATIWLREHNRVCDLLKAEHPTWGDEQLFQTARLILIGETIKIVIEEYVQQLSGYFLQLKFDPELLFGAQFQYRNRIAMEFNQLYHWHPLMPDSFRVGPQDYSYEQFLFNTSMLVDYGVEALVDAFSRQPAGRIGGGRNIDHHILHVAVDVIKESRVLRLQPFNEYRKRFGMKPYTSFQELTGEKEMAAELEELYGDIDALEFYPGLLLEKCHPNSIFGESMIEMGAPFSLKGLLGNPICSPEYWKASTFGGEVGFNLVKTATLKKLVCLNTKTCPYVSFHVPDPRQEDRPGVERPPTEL

COX-2 = molecular target: T2, COX-2 (Homo sapiens, UniProt P35354); assay: COX-2 ELISA assay kit (PGHS-2 converting arachidonic acid to prostaglandins)
T2 sequence (P35354 18-604): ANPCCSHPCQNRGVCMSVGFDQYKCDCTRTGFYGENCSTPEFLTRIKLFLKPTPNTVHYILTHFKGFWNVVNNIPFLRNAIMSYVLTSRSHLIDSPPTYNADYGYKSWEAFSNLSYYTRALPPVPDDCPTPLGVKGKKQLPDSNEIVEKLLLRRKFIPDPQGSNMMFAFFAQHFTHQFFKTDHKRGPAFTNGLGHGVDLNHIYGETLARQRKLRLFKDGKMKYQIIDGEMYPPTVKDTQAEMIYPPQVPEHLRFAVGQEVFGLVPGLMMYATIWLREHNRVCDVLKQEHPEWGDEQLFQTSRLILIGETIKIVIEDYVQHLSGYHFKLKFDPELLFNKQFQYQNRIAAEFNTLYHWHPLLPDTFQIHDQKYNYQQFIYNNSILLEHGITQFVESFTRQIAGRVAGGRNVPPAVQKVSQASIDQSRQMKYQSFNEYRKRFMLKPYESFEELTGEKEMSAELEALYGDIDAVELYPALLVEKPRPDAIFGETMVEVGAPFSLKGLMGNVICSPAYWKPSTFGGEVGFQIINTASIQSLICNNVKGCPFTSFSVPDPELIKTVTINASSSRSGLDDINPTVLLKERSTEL
Description: The anti-inflammatory assays for COX-2 inhibitory activity were conducted using prostaglandin endoperoxide H synthase-1 and -2 isozymes (PGHS-1, and -2) based on their ability to convert arachidonic acid to prostaglandins (PGs).
Inhibition was measured by COX-1 and COX-2 ELISA assay kits (Cayman Chemical Co., Ann Arbor, Mich.).

## CC(=O)Oc1ccccc1C(=O)O [aspirin]
COX-1
  inhibition of COX-1: 58%
COX-2
  inhibition of COX-2: 42%

From patent publication US20050214394A1, “Hippophae rhamnoides compositions for cancer therapy” (priority 2003, published 2005)
